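Where inhibition never reached the appropriate level, the endpoint shown equals the highest concentration tested. Otherwise, values were interpolated linearly from a five-concentration, 48-hour dose response in 96-well plates. GI50 marks 50% less growth.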 Active and inactive are the calls of the source. No stated cut-off is given here; in the data, active = GI50 up to about 1.1 µM and inactive = higher.
Key:
Assay in all cases: growth of human tumour cells (NCI), 48 h
[1] = tested on: 786-0
[2] = tested on: A498
[3] = tested on: A549
[4] = tested on: ACHN
[5] = tested on: BT-549
[6] = tested on: CAKI-1
[7] = tested on: CCRF-CEM
[8] = tested on: COLO 205
[9] = tested on: EKVX
[10] = tested on: HCC 2998
[11] = tested on: HCT-116
[12] = tested on: HCT-15
[13] = tested on: HOP-62
[14] = tested on: HOP-92
[15] = tested on: HT-29
[16] = tested on: Hs-578T
[17] = tested on: IGROV-1
[18] = tested on: K562
[19] = tested on: KM12
[20] = tested on: LOX IMVI
[21] = tested on: M14
[22] = tested on: MDA-MB-231
[23] = tested on: MDA-MB-435
[24] = tested on: MDA-N
[25] = tested on: MOLT-4
[26] = tested on: Malme-3M
[27] = tested on: NCI-H226
[28] = tested on: NCI-H23
[29] = tested on: NCI-H460
[30] = tested on: NCI-H522
[31] = tested on: NCI/ADR-RES
[32] = tested on: OVCAR-3
[33] = tested on: OVCAR-4
[34] = tested on: OVCAR-5
[35] = tested on: OVCAR-8
[36] = tested on: PC-3
[37] = tested on: RPMI-8226
[38] = tested on: RXF 393
[39] = tested on: SF-268
[40] = tested on: SF-295
[41] = tested on: SF-539
[42] = tested on: SK-MEL-2
[43] = tested on: SK-MEL-5
[44] = tested on: SK-OV-3
[45] = tested on: SN12C
[46] = tested on: SNB-19
[47] = tested on: SR
[48] = tested on: SW-620
[49] = tested on: T47D
[50] = tested on: TK-10
[51] = tested on: U-251
[52] = tested on: UACC-257
[53] = tested on: UACC-62
[54] = tested on: UO-31
[55] = tested on: HL-60
[56] = tested on: MCF7
[57] = tested on: SNB-75

Measured: GI50

Cn1c(N=[N+]=[N-])cc(=O)n(C)c1=O
inactive: [1] > 100 µM | [2] > 100 µM | [3] > 100 µM | [4] > 100 µM | [5] > 100 µM | [6] > 100 µM | [7] > 100 µM | [8] > 100 µM | [9] > 100 µM | [10] > 100 µM | [11] > 100 µM | [13] > 100 µM | [14] > 100 µM | [15] > 100 µM | [16] > 100 µM | [17] > 100 µM | [18] > 100 µM | [19] > 100 µM | [20] > 100 µM | [21] > 100 µM | [22] > 100 µM | [23] > 100 µM | [24] > 100 µM | [25] > 100 µM | [26] > 100 µM | [27] > 100 µM | [28] > 100 µM | [29] > 100 µM | [30] > 100 µM | [31] > 100 µM | [32] > 100 µM | [33] > 100 µM | [34] > 100 µM | [35] > 100 µM | [36] > 100 µM | [37] > 100 µM | [38] > 100 µM | [39] > 100 µM | [40] > 100 µM | [41] > 100 µM | [42] > 100 µM | [43] > 100 µM | [44] > 100 µM | [45] > 100 µM | [46] > 100 µM | [47] > 100 µM | [48] > 100 µM | [49] > 100 µM | [50] > 100 µM | [51] > 100 µM | [52] > 100 µM | [53] > 100 µM | [54] > 100 µM
> 100 µM: [12]

Cc1nnc([C@@]2(C)CC[C@H]3[C@@H](CC=C4C[C@@H](O)CC[C@@]43C)[C@@H]2CC#N)o1
> 100 µM: [12]
inactive: [1] > 100 µM | [2] > 100 µM | [3] > 100 µM | [4] > 100 µM | [5] > 100 µM | [6] > 100 µM | [7] > 100 µM | [8] > 100 µM | [9] > 100 µM | [11] > 100 µM | [55] > 100 µM | [13] > 100 µM | [14] > 100 µM | [15] > 100 µM | [16] 11.6 µM | [18] > 100 µM | [19] > 100 µM | [20] > 100 µM | [21] > 100 µM | [56] > 100 µM | [22] > 100 µM | [23] > 100 µM | [24] > 100 µM | [25] > 100 µM | [26] > 100 µM | [27] > 100 µM | [28] > 100 µM | [30] 22.5 µM | [31] > 100 µM | [32] > 100 µM | [33] > 100 µM | [34] > 100 µM | [35] > 100 µM | [36] > 100 µM | [37] 97.3 µM | [38] > 100 µM | [39] > 100 µM | [40] > 100 µM | [41] > 100 µM | [42] > 100 µM | [43] > 100 µM | [44] > 100 µM | [45] > 100 µM | [46] > 100 µM | [57] 27 µM | [47] > 100 µM | [48] > 100 µM | [50] > 100 µM | [51] > 100 µM | [52] 97.5 µM | [53] > 100 µM | [54] > 100 µM
